The numbers were not newly measured in US20160074333A1, “Pharmaceutical compositions of tamsulosin or salts thereof” (WOCKHARDT LIMITED, priority 2013, published 2016), which cites them from elsewhere.

Where a name gives a salt, the structure may show the parent alone. Read-outs that look alike come from different tables or passages of the source.

Turning to `CCOc1ccccc1OCCN[C@H](C)Cc1ccc(OC)c(S(N)(=O)=O)c1` [Tamsulosin hydrochloride, (-)-(R)-5-[2-[[2-(o-Ethoxyphenoxy)ethyl]amino]propyl]-2-methoxybenzene sulfonamide, monohydrochloride], the solubility entry by setting is: (in ethanol) “slightly soluble”; (in ether) “practically insoluble”; (in glacial acetic acid) “slightly soluble”; (in methanol) “sparingly soluble”; (in water) “sparingly soluble”.
